Measured values from article PMC12518693, “Potent Fluorescent Probe for Target‐Engagement Studies of Allosteric Pyruvate Kinase Modulators” (Angewandte Chemie (International Ed. in English), 2025).

Assays:
[1] = target: PKM2 (Homo sapiens, UniProt P14618); assay: Native PAGE in-gel fluorescence, PKM2; format: binding; parameters: made in house
Protocol: To study the interaction of IV with PKLNluc and its oligomers, native PAGE was performed (Figure 4). Recombinant PKLNluc was incubated for 2 h with IV (0.15–10 µM) or DMSO and loaded onto gels. […] Colloidal blue staining and western blotting with anti‐PKL antibodies confirmed the predominance and identity of the bands (Figure S11a,d). […] PKM2 and PKL exist in equilibrium between oligomeric states, with PKM2 mainly dimeric when unbound.^[ [18] ^] As oligomerization regulates PK function,^[ [11], [54] ^] PKLNluc oligomerization was compared to PKLwt and PKM2 (Figure 4b,c). […] Colloidal blue and anti‐PKM2 blots confirmed PKM2 was mostly monomeric, explaining the lack of binding (Figure S11).
Given that FBP levels vary widely in cells,^[ [55], [56], [57] ^] and that it binds PKL with nanomolar affinity, ^[ [58] ^] IV binding to PKLwt was tested with and without FBP.
Recombinant PKLNLuc (4 x 950 ng) was incubated for 1 hour at ambient temperature with different concentrations of compound IV in a total volume of 60 µL Tris-HCl buffer pH 7.4 (50 mM Tris, 100 mM KCl, 10 mM MgCl2, 0.05% Tween 20). […]
A ChemiDoc imager (Bio-Rad, Alexa 488 filter) was used for fluorescence detection of compound IV bound to the proteins. […] The images of the in-gel fluorescence and luminescence detection were superimposed. […]

[2] = target: PKLNluc (Homo sapiens, UniProt P30613); assay: NanoBRET with recombinant PKLNluc; settings: tracer IV 100 nM, 450/550 nm, ± mitapivat
PKLNluc, sequence (P30613 1-543 isoform P30613-2): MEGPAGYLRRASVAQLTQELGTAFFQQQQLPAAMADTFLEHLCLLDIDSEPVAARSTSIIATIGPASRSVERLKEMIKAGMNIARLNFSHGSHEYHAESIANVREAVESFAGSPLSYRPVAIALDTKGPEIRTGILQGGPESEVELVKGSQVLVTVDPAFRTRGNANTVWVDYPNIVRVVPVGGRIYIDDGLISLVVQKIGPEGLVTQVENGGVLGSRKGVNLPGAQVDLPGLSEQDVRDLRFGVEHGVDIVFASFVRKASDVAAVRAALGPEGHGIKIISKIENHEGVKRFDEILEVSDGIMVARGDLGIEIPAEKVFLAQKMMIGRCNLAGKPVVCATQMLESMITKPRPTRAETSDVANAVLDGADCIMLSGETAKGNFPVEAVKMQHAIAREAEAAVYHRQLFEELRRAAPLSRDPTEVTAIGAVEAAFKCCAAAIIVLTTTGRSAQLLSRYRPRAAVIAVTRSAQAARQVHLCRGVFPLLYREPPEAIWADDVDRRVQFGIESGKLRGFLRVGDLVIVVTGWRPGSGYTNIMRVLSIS
Protocol: Due to the low quantum yield of SBD‐containing IV (Table S1), we optimized the plate reader settings for the NanoBRET assay to maximize the signal‐to‐background (S/B) ratio. The fluorescence excitation spectrum of tracer IV overlapped with the emission band of PKLNluc (Figure 5a), prompting the screening of wavelength pairs within 400–600 nm.
The donor/acceptor wavelength pairs were recorded at 450/470 nm, 550/510 nm, 450/530 nm, 450/550 nm, 450/610 nm, 450/630 nm and 400/470 nm respectively. For each sample well, BRET ratios were calculated using the following formula:
BRET ratio mBU= AcceptorSDonorS-AcceptorNTDonorNT
Where AcceptorS is the luminescence intensity (FI) of the sample well at 550 nm, DonorS is the FI of the sample well at 450 nm, and AcceptorNT and DonorNT are the FI of the no-tracer control at 550 nm and 450 nm respectively.

[3] = test system: HEK293 cells; assay: HEK293 cell viability assay (CellTiter-Glo 2.0); format: cell-based; settings: 2 h
Protocol: Finally, the effects of tracer IV on cell viability were assessed. HEK293 cells were treated with IV at concentrations of 0, 0.01, 0.1, 1, and 10 µM for 2 h, after which cells were lysed, and intracellular ATP levels were quantified using the CellTiter‐Glo 2.0 assay (Figure S8a).
Figure S8. Cell viability assay (CellTiter-Glo 2.0) of HEK293 cells treated with different concentrations of tracer IV. (A) Cell viability assay performed on HEK293 cells incubated for 2 h with different concentrations of tracer IV or DMSO (0 nM IV) in FluoroBrite™ DMEM complete medium. Results are reported as relative luminescence values (mean ± SE, n=4, One Way ANOVA followed by Dunnett´s multiple comparison test). […] Results are reported as relative luminescence values (mean ± SE, n=4, One Way ANOVA followed by Dunnett´s multiple comparison test). […] Results are reported as relative luminescence values (mean ± SE, n=4, One Way ANOVA followed by Dunnett´s multiple comparison test).
The effect of tracer IV on cell viability was assessed using CellTiter-Glo 2.0 assay (Promega). This is a method that determines the number of viable cells by quantifying the amount of ATP in the metabolically active cells. […] Mono-oxygenation of luciferin catalyzed by luciferase in the presence of ATP will generate light which could be measured by luminometer. […]

PKM2, sequence (P14618 whole entry): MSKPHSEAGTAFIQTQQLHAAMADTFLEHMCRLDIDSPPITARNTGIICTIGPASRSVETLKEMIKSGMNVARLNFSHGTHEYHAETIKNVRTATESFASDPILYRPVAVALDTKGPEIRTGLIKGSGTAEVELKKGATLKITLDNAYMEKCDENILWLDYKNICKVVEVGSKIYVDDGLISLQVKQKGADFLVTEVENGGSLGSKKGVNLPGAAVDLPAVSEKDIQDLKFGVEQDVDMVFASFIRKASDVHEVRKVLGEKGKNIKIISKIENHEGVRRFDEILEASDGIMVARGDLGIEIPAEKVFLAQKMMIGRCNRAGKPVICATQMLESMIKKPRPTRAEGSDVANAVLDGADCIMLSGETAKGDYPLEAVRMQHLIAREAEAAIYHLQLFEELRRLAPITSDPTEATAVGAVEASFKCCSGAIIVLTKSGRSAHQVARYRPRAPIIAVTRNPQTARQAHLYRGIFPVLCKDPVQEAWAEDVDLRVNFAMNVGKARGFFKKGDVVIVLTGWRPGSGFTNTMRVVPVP

Q: Which results are given for CN(C)c1ccc(S(=O)(=O)c2ccc3c(=O)n(Cc4cc[nH]n4)ncc3c2)c2nonc12 [Compound IV, 2-((1H-Pyrazol-3-yl)methyl)-6-((7-(dimethylamino)benzo[c][1,2,5]oxadiazol-4-yl)sulfonyl)phthalazin-1(2H)-one]?
A: in-gel fluorescence labeling of PKM2 ([1]; IV 2.5 or 10 µM with FBP 10 µM, PKM2 tetrameric): no fluorescence; in-gel fluorescence labeling of PKM2 ([1]; IV 2.5 or 10 µM, without FBP): no fluorescence was detected; BRET assay window [2]: 39 mBU; effect on cell viability (intracellular ATP) ([3]; HEK293, 0.01-10 µM): does not affect cell viability; effect on viability of transfected cells ([3]; HEK293 transfected with PKLNluc or Nluc plasmids, up to highest tested concentration): did not affect the viability
